# Experiments:
# IL-13 induced pSTAT6 = experiment: Murine model of IL-13 induced pSTAT6 induction in lung tissue; format: in vivo; details: mouse lung; for lung concentration smaller than that of the corresponding compound of the invention by a factor: pharmacodynamic assay, versus Examples 1, 7, 13, 6
# Procedure: Il-13 is an important cytokine underlying the pathophysiology of asthma (Kudlacz et al. Eur. J. Pharmacol, 2008, 582, 154-161). IL-13 binds to cell surface receptors activating members of the Janus family of kinases (JAK) which then phosphorylate STAT6 and subsequently activates further transcription pathways. In the described model, a dose of IL-13 was delivered locally into the lungs of mice to induce the phosphorylation of STAT6 (pSTAT6) which is then measured as the endpoint.
# Adult balb/c mice from Harlan were used in the assay. On the day of study, animals were lightly anesthetized with isoflurane and administered either vehicle or test compound (0.5 mg/mL, 50 μL total volume over several breaths) via oral aspiration. Animals were placed in lateral recumbency post dose and monitored for full recovery from anesthesia before being returned to their home cage. Four hours later, animals were once again briefly anesthetized and challenged with either vehicle or IL-13 (0.03 μg total dose delivered, 50 μL total volume) via oral aspiration before being monitored for recovery from anesthesia and returned to their home cage. One hour after vehicle or IL-13 administration, lungs were collected for both pSTAT6 detection using an anti-pSTAT6 ELISA (rabbit mAb capture/coating antibody; mouse mAb detection/report antibody: anti-pSTAT6-pY641; secondary antibody: anti-mouse IgG-HRP) and analyzed for total drug concentration as described above in Assay 4.
# Selected compounds of the invention were tested in the assay. Activity in the model is evidenced by a decrease in the level of pSTAT6 present in the lungs of treated animals at 5 hours compared to the vehicle treated, IL-13 challenged control animals. The difference between the control animals which were vehicle-treated, IL-13 challenged and the control animals which were vehicle-treated, vehicle challenged dictated the 0% and 100% inhibitory effect, respectively, in any given experiment.
# [1] = test system: IL-13 induced STAT6 phosphorylation in BEAS-2B human lung epithelial cells; experiment: AlphaScreen JAK1 cellular potency assay in BEAS-2B cells; format: cell-based
# [2] = Pharmacokinetics in plasma and lung in mouse; format: in vivo; details: oral aspiration, lung AUC (μg hr/g) to plasma AUC (μg hr/mL)
# Procedure: Plasma and lung levels of test compounds and ratios thereof were determined in the following manner. BALB/c mice from Charles River Laboratories were used in the assay. Test compounds were individually formulated in 20% propylene glycol in pH 4 citrate buffer at a concentration of 0.2 mg/mL and 50 uL of the dosing solution was introduced into the trachea of a mouse by oral aspiration. At various time points (typically 0.167, 2, 6, 24 hr) post dosing, blood samples were removed via cardiac puncture and intact lungs were excised from the mice. Blood samples were centrifuged (Eppendorf centrifuge, 5804R) for 4 minutes at approximately 12,000 rpm at 4° C. to collect plasma. Lungs were padded dry, weighed, and homogenized at a dilution of 1:3 in sterile water. Plasma and lung levels of test compound were determined by LC-MS analysis against analytical standards constructed into a standard curve in the test matrix. A lung to plasma ratio was determined as the ratio of the lung AUC in μg hr/g to the plasma AUC in μg hr/mL, where AUC is conventionally defined as the area under the curve of test compound concentration vs. time.
# JAK1 = JAK1 (Homo sapiens (Human), UniProt P23458); experiment: LanthaScreen JAK1 biochemical assay; details: versus Examples 1, 7, 13, 6
# JAK1, sequence (P23458 whole entry): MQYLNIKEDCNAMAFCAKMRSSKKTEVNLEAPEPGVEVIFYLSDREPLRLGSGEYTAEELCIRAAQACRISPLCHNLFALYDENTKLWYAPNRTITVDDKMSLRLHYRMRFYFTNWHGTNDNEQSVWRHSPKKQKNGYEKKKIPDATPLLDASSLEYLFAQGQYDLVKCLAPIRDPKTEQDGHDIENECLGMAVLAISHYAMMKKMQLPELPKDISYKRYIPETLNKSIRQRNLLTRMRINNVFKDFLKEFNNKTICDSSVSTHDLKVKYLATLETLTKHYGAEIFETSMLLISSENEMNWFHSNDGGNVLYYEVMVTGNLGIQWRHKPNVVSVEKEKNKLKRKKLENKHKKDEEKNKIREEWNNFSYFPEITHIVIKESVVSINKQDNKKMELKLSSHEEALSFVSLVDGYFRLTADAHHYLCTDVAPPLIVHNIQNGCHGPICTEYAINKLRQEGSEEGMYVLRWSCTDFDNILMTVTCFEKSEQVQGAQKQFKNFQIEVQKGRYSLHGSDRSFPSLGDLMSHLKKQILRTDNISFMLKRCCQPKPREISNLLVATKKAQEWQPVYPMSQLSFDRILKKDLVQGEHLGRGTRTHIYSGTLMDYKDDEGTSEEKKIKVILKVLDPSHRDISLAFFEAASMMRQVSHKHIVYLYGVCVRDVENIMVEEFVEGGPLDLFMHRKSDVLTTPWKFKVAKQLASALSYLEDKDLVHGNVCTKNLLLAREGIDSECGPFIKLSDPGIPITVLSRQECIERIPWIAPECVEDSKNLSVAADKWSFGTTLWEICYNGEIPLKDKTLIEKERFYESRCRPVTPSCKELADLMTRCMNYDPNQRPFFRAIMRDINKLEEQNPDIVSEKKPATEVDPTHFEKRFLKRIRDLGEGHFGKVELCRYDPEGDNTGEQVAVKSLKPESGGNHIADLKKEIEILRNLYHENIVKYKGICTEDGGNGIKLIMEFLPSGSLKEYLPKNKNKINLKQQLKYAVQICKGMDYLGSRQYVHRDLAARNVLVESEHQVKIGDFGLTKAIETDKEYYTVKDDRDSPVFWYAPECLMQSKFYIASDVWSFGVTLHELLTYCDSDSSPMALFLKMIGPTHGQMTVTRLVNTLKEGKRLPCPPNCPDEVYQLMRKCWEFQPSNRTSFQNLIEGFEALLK
# [3] = Dynamic moisture sorption assessment; format: physicochemical
# Procedure: Dynamic moisture sorption (DMS) measurement was performed using a VTI atmospheric microbalance, SGA-100 system (VTI Corp., Hialeah, Fla. 33016). A weighed sample was used and the humidity was lowest possible value (close to 0% RH) at the start of the analysis. The DMS analysis consisted of an initial drying step (˜0% RH) for 120 minutes, followed by two cycles of sorption and desorption with a scan rate of 5% RH/step over the humidity range of 5% RH to 90% RH. The DMS run was performed isothermally at 25° C.
smiles,measurement,setting,value
CCc1cc(O)c(F)cc1-c1ccc2c(-c3nc4c([nH]3)CCN(C3CN(C5CCS(=O)(=O)C5)C3)C4)n[nH]c2c1 (centres unmarked) [Example 1-15],pSTAT6 inhibition in the pharmacodynamic assay,IL-13 induced pSTAT6,noted as exceptions
CCc1cc(O)c(F)cc1-c1ccc2c(-c3nc4c([nH]3)CCN(CCNC3(C#N)CC3)C4)n[nH]c2c1 [Example 3-1],pSTAT6 inhibition in the pharmacodynamic assay,IL-13 induced pSTAT6,noted as exceptions
CCc1cc(O)c(F)cc1-c1ccc2c(-c3nc4c([nH]3)CCN(CCNC3CC(OC)C3)C4)n[nH]c2c1 (centres unmarked) [Example 3-30],BEAS-2B pIC50,[1],A (A represents a pIC50 value ≥8 (IC50≤10 nM))
CCc1cc(O)c(F)cc1-c1ccc2c(-c3nc4c([nH]3)CCN(CCN(C)CC(C)C)C4)n[nH]c2c1 [Example 3-33],Lung to Plasma ratio Assay 4,[2],A (A denotes a ratio >100)
"CCc1cc(O)c(F)cc1-c1ccc2c(-c3nc4c([nH]3)CCN(CCNC3CC(OC)C3)C4)n[nH]c2c1 (centres unmarked) [Example 8, 5-Ethyl-2-fluoro-4-(3-(5-(2-((3-methoxycyclobutyl)amino)ethyl)-4,5,6,7-tetrahydro-1H-imidazo[4,5-c]pyridin-2-yl)-1H-indazol-6-yl)phenol]",Lung to Plasma ratio Assay 4,[2],A (A denotes a ratio >100)
"CCc1cc(O)c(F)cc1-c1ccc2c(-c3nc4c([nH]3)CCN(C[C@@H]3CCCN3C)C4)n[nH]c2c1 [Example 11, (S)-5-ethyl-2-fluoro-4-(3-(5-((1-methylpyrrolidin-2-yl)methyl)-4,5,6,7-tetrahydro-1H-imidazo[4,5-c]pyridin-2-yl)-1H-indazol-6-yl)phenol]",Lung to Plasma ratio Assay 4,[2],A (A denotes a ratio >100)
"CCc1cc(O)c(F)cc1-c1ccc2c(-c3nc4c([nH]3)CCN(C[C@H]3COCCN3)C4)n[nH]c2c1 [Example 13, (S)-5-Ethyl-2-fluoro-4-(3-(5-(morpholin-3-ylmethyl)-4,5,6,7-tetrahydro-1H-imidazo[4,5-c]pyridin-2-yl)-1H-indazol-6-yl)phenol]",Lung to Plasma ratio Assay 4,[2],A (A denotes a ratio >100)
"CCc1cc(O)c(F)cc1-c1ccc2c(-c3nc4c([nH]3)CCN(C[C@@H]3COCCN3)C4)n[nH]c2c1 [Example 14, (R)-5-Ethyl-2-fluoro-4-(3-(5-(morpholin-3-ylmethyl)-4,5,6,7-tetrahydro-1H-imidazo[4,5-c]pyridin-2-yl)-1H-indazol-6-yl)phenol]",Lung to Plasma ratio Assay 4,[2],A (A denotes a ratio >100)
CCc1cc(O)c(F)cc1-c1ccc2c(-c3nc4c([nH]3)CCN(CC3CNC3)C4)n[nH]c2c1 [Example 14-7],Lung to Plasma ratio Assay 4,[2],A (A denotes a ratio >100)
"CCc1cc(O)c(F)cc1-c1ccc2c(-c3nc4c([nH]3)CCN(CCN3CCC[C@@H]3C)C4)n[nH]c2c1 [Example 15, (S)-5-ethyl-2-fluoro-4-(3-(5-(2-(2-methylpyrrolidin-1-yl)ethyl)-4,5,6,7-tetrahydro-1H-imidazo[4,5-c]pyridin-2-yl)-1H-indazol-6-yl)phenol]",Lung to Plasma ratio Assay 4,[2],A (A denotes a ratio >100)
"CCc1cc(O)c(F)cc1-c1ccc2c(-c3nc4c([nH]3)CCN(C3CC(C)C3)C4)n[nH]c2c1 (centres unmarked) [Example C-1, 5-Ethyl-2-fluoro-4-(3-(5-(3-methylcyclobutyl)-4,5,6,7-tetrahydro-1H-imidazo[4,5-c]pyridin-2-yl)-1H-indazol-6-yl)phenol]",fold less potent than the corresponding compound of the invention in the enzyme assay,JAK1,2 fold
same,lung concentration smaller than that of the corresponding compound of the invention by a factor,IL-13 induced pSTAT6,36
CCc1cc(O)c(F)cc1-c1ccc2c(-c3nc4c([nH]3)CCN(CCC(C)C)C4)n[nH]c2c1 [Example C-2],fold less potent than the corresponding compound of the invention in the enzyme assay,JAK1,3 fold
same,lung concentration smaller than that of the corresponding compound of the invention by a factor,IL-13 induced pSTAT6,52
CCc1cc(O)c(F)cc1-c1ccc2c(-c3nc4c([nH]3)CCN(CC3CCCOC3)C4)n[nH]c2c1 (centres unmarked) [Example C-3],fold less potent than the corresponding compound of the invention in the enzyme assay,JAK1,6 fold
same,lung concentration smaller than that of the corresponding compound of the invention by a factor,IL-13 induced pSTAT6,13
CCc1cc(O)c(F)cc1-c1ccc2c(-c3nc4c([nH]3)CCN(C3CCC(C)CC3)C4)n[nH]c2c1 (centres unmarked) [Example C-4],fold less potent than the corresponding compound of the invention in the enzyme assay,JAK1,2.5 fold
same,lung concentration smaller than that of the corresponding compound of the invention by a factor,IL-13 induced pSTAT6,23
"CCc1cc(O)c(F)cc1-c1ccc2c(-c3nc4c([nH]3)CCN(C3CCN(C)CC3)C4)n[nH]c2c1 [crystalline hydrate, 5-ethyl-2-fluoro-4-(3-(5-(1-methylpiperidin-4-yl)-4,5,6,7-tetrahydro-1H-imidazo[4,5-c]pyridin-2-yl)-1H-indazol-6-yl)phenol]",hygroscopicity,[3],non-hygroscopic
same,weight gain (dynamic moisture sorption),"[3]; 5% to 90% relative humidity, 25° C.",less than 0.12%

# From US10526330B2, “JAK kinase inhibitor compounds for treatment of respiratory disease” (THERAVANCE BIOPHARMA R&D IP, LLC, priority 2015, dated 2020)
